The values that follow come from patent publication US10233182B2, “Substituted spirocyclic inhibitors of autotaxin” (X-Rx, Inc., priority 2014, dated 2019).

The target of the assay is Autotaxin (Homo sapiens (Human), UniProt Q13822). The assay is described as follows: Autotaxin LPC Cascade Assay. As to conditions: Autotaxin 5 nM, LPC 100 μM, choline oxidase/HRP/Ampliflu Red fluorescence read-out, 2% DMSO, RT; read-out: IC50 ATX Activity. It counts as biochemical. Put shortly: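 Choline liberated from LPC by autotaxin during 1 h, after a 10-min RT compound preincubation, was converted through choline oxidase/HRP to a fluorescent Ampliflu Red product.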
Turning to `CC(C)[C@@H](NC(=O)c1ccc(Cl)c(Cl)c1)C(=O)N1CCC2(CC1)C(=O)N(C)C(=O)N2c1ccccc1` [Example 35, (R)-3,4-Dichloro-N-(3-methyl-1-(3-methyl-2,4-dioxo-1-phenyl-1,3,8-triazaspiro[4.5]decan-8-yl)-1-oxobutan-2-yl)benzamide], the IC50 was at least 1000 nM. To `CC(C)[C@@H](NC(=O)c1cc(C(F)(F)F)ccc1F)C(=O)N1CCC2(CC1)C(=O)N(C)C(=O)N2c1cccc(Cl)c1` [Example 187, (R)—N-(1-(1-(3-Chlorophenyl)-3-methyl-2,4-dioxo-1,3,8-triazaspiro[4.5]decan-8-yl)-3-methyl-1-oxobutan-2-yl)-2-fluoro-5-(trifluoromethyl)benzamide] belongs under 500 nM. To `COc1ccc(N2C(C)N(C)C(=O)C23CCN(C(=O)[C@H](NC(=O)c2cc(C(F)(F)F)ccc2F)C(C)C)CC3)cc1` (stereo partly drawn) [Example 209, 2-Fluoro-N-((2R)-1-(1-(4-methoxyphenyl)-2,3-dimethyl-4-oxo-1,3,8-triazaspiro[4.5]decan-8-yl)-3-methyl-1-oxobutan-2-yl)-5-(trifluoromethyl)benzamide] belongs under 500 nM.

Turning to `COc1cccc(N2C(=O)N(C)C(=O)C23CCN(C(=O)[C@H](NC(=O)c2cc(C(F)(F)F)ccc2F)C(C)C)CC3)c1` [Example 10, (R)-2-Fluoro-N-(1-(1-(3-methoxyphenyl)-3-methyl-2,4-dioxo-1,3,8-triazaspiro[4.5]decan-8-yl)-3-methyl-1-oxobutan-2-yl)-5-(trifluoromethyl)benzamide], the IC50 was under 500 nM. As for `CC(C)[C@@H](NC(=O)c1cc(C(F)(F)F)ccc1F)C(=O)N1CCC2(CC1)C(=O)N(C)C(=O)N2C1CCCCC1` [Example 242, (R)—N-(1-(1-Cyclohexyl-3-methyl-2,4-dioxo-1,3,8-triazaspiro[4.5]decan-8-yl)-3-methyl-1-oxobutan-2-yl)-2-fluoro-5-(trifluoromethyl)benzamide], the 50% inhibitory concentration (IC50) is under 500 nM. As for `CC(C)[C@@H](NC(=O)c1cc(Cl)cc(C(F)(F)F)c1)C(=O)N1CCC2(CC1)C(=O)N(C)CN2c1ccc(=O)n(C)c1` [Example 207, (R)-3-Chloro-N-(3-methyl-1-(3-methyl-1-(1-methyl-6-oxo-1,6-dihydropyridin-3-yl)-4-oxo-1,3,8-triazaspiro[4.5]decan-8-yl)-1-oxobutan-2-yl)-5-(trifluoromethyl)benzamide], the half-maximal inhibitory concentration (IC50) was under 500 nM.

Consider `Cc1cccc(C(=O)N[C@@H](C(=O)N2CCC3(CC2)C(=O)N(C)CN3c2ccc(C#N)cc2)C(C)C)c1F` [Example 179, (R)—N-(1-(1-(4-Cyanophenyl)-3-methyl-4-oxo-1,3,8-triazaspiro[4.5]decan-8-yl)-3-methyl-1-oxobutan-2-yl)-2-fluoro-3-methylbenzamide], for which the IC50 is under 500 nM.

`CC(C)[C@@H](NC(=O)c1cc(C(F)(F)F)ccc1F)C(=O)N1CCC2(CC1)C(=O)N(C)C(=O)N2c1ccc2nn(C)cc2c1` [Example 13, (R)-2-Fluoro-N-(3-methyl-1-(3-methyl-1-(2-methyl-2H-indazol-5-yl)-2,4-dioxo-1,3,8-triazaspiro[4.5]decan-8-yl)-1-oxobutan-2-yl)-5-(trifluoromethyl)benzamide]: the IC50 was under 500 nM. For the compound `CC(C)[C@@H](NC(=O)c1cc(C(F)(F)F)ccc1F)C(=O)N1CCC2(CC1)C(=O)N(C)C(=O)N2c1ccc(NC(=O)C2CC2)cc1` [Example 128, (R)—N-(1-(1-(4-(Cyclopropanecarboxamido)phenyl)-3-methyl-2,4-dioxo-1,3,8-triazaspiro[4.5]decan-8-yl)-3-methyl-1-oxobutan-2-yl)-2-fluoro-5-(trifluoromethyl)benzamide], the IC50 fell in the range of 500 to 1000 nM. For `CC(C)[C@@H](NC(=O)c1cc(Cl)cc(C(F)(F)F)c1)C(=O)N1CCC2(CC1)C(=O)N(C)CN2c1ccc(C(=O)O)cc1` [Example 160, (R)-4-(8-(2-(3-Chloro-5-(trifluoromethyl)benzamido)-3-methylbutanoyl)-3-methyl-4-oxo-1,3,8-triazaspiro[4.5]decan-1-yl)benzoic Acid] the value was under 500 nM; for `COc1ccc(F)c(CN2C(=O)N(C)C(=O)C23CCN(C(=O)[C@H](NC(=O)c2cc(C(F)(F)F)ccc2F)C(C)C)CC3)c1` [Example 107, (R)-2-Fluoro-N-(1-(1-(2-fluoro-5-methoxybenzyl)-3-methyl-2,4-dioxo-1,3,8-triazaspiro[4.5]decan-8-yl)-3-methyl-1-oxobutan-2-yl)-5-(trifluoromethyl)benzamide], under 500 nM; for `CC(C)[C@@H](NC(=O)c1cc(OC(F)(F)F)ccc1F)C(=O)N1CCC2(CC1)C(=O)N(C)CN2c1ccc(C(=O)O)cc1` [Example 162, (R)-4-(8-(2-(2-Fluoro-5-(trifluoromethoxy)benzamido)-3-methylbutanoyl)-3-methyl-4-oxo-1,3,8-triazaspiro[4.5]decan-1-yl)benzoic Acid], under 500 nM. To `Cc1cc(C(=O)N[C@@H](C(=O)N2CCC3(CC2)C(=O)N(C)CN3c2ccccc2)C(C)C)ccc1F` [Example 139, (R)-4-Fluoro-3-methyl-N-(3-methyl-1-(3-methyl-4-oxo-1-phenyl-1,3,8-triazaspiro[4.5]decan-8-yl)-1-oxobutan-2-yl)benzamide] belongs under 500 nM; to `Cc1ccc(N2C(=O)N(C)C(=O)C23CCN(C(=O)[C@H](NC(=O)c2cc(C(F)(F)F)ccc2F)C(C)C)CC3)cc1` [Example 184, (R)-2-Fluoro-N-(3-methyl-1-(3-methyl-2,4-dioxo-1-p-tolyl-1,3,8-triazaspiro[4.5]decan-8-yl)-1-oxobutan-2-yl)-5-(trifluoromethyl)benzamide], under 500 nM. As for `CC(C)[C@H](NC(=O)c1cc(C(F)(F)F)ccc1F)C(=O)N1CCC2(CC1)C(=O)N(C)C(=O)N2c1ccc2[nH]ncc2c1` [Example 69, (S)—N-(1-(1-(1H-Indazol-5-yl)-3-methyl-2,4-dioxo-1,3,8-triazaspiro[4.5]decan-8-yl)-3-methyl-1-oxobutan-2-yl)-2-fluoro-5-(trifluoromethyl)benzamide], the 50% inhibitory concentration (IC50) was at least 1000 nM. In the case of `CC(C)[C@@H](NC(=O)c1cc(C(F)(F)F)ccc1F)C(=O)N1CCC2(CC1)C(=O)N(C)CN2c1ccc(-c2nc[nH]n2)cc1` [Example 220, (R)—N-(1-(1-(4-(1H-1,2,4-Triazol-3-yl)phenyl)-3-methyl-4-oxo-1,3,8-triazaspiro[4.5]decan-8-yl)-3-methyl-1-oxobutan-2-yl)-2-fluoro-5-(trifluoromethyl)benzamide], the IC50 is under 500 nM. To `Cc1cc(CN2C(=O)N(C)C(=O)C23CCN(C(=O)[C@H](NC(=O)c2cc(C(F)(F)F)ccc2F)C(C)C)CC3)ccn1` [Example 95, (R)-2-Fluoro-N-(3-methyl-1-(3-methyl-1-((2-methylpyridin-4-yl)methyl)-2,4-dioxo-1,3,8-triazaspiro[4.5]decan-8-yl)-1-oxobutan-2-yl)-5-(trifluoromethyl)benzamide] belongs 500 to 1000 nM; to `CC[C@@H](C)[C@@H](NC(=O)c1cccc(C)c1F)C(=O)N1CCC2(CC1)C(=O)N(C)C(=O)N2c1ccccc1` [Example 4, 2-Fluoro-3-methyl-N-((2R,3R)-3-methyl-1-(3-methyl-2,4-dioxo-1-phenyl-1,3,8-triazaspiro[4.5]decan-8-yl)-1-oxopentan-2-yl)benzamide], under 500 nM; to `CC(C)[C@H](C(=O)N1CCC2(CC1)C(=O)N(C)C(=O)N2c1ccc2[nH]ncc2c1)N(C)C(=O)c1cc(C(F)(F)F)ccc1F` [Example 236, (R)—N-(1-(1-(1H-Indazol-5-yl)-3-methyl-2,4-dioxo-1,3,8-triazaspiro[4.5]decan-8-yl)-3-methyl-1-oxobutan-2-yl)-2-fluoro-N-methyl-5-(trifluoromethyl)benzamide], at least 1000 nM.

For `COC(=O)Nc1ccc(N2C(=O)N(C)C(=O)C23CCN(C(=O)[C@H](NC(=O)c2cc(C(F)(F)F)ccc2F)C(C)C)CC3)cc1` [Example 127, (R)-Methyl-4-(8-(2-(2-fluoro-5-(trifluoromethyl)benzamido)-3-methylbutanoyl)-3-methyl-2,4-dioxo-1,3,8-triazaspiro[4.5]decan-1-yl)phenylcarbamate], the IC50 is 500 to 1000 nM.

As for `CC(C)[C@@H](NC(=O)c1cc(C(F)(F)F)ccc1F)C(=O)N1CCC2(CC1)C(=O)N(C)C(=O)N2c1ccc(=O)n(C)c1` [Example 23, (R)-2-Fluoro-N-(3-methyl-1-(3-methyl-1-(1-methyl-6-oxo-1,6-dihydropyridin-3-yl)-2,4-dioxo-1,3,8-triazaspiro[4.5]decan-8-yl)-1-oxobutan-2-yl)-5-(trifluoromethyl)benzamide], the IC50 lay within 500 to 1000 nM. For `Cc1cccc(C(=O)N[C@@H](C(=O)N2CCC3(CC2)C(=O)N(C)C(=O)N3c2ccccc2)C2CCCCC2)c1` [Example 1, (R)—N-(1-Cyclohexyl-2-(3-methyl-2,4-dioxo-1-phenyl-1,3,8-triazaspiro[4.5]decan-8-yl)-2-oxoethyl)-3-methylbenzamide], the IC50 is under 500 nM. Regarding `CCc1ccc(F)c(C(=O)N[C@@H](C(=O)N2CCC3(CC2)C(=O)N(C)C(=O)N3c2ccc3cnc(C)n3c2)C(C)C)c1` [Example 18, (R)-5-Ethyl-2-fluoro-N-(3-methyl-1-(3-methyl-1-(3-methylimidazo[1,5-a]pyridin-6-yl)-2,4-dioxo-1,3,8-triazaspiro[4.5]decan-8-yl)-1-oxobutan-2-yl)benzamide], the half-inhibitory concentration (IC50) was under 500 nM. Consider `CCc1ccc(F)c(C(=O)N[C@@H](C(=O)N2CCC3(CC2)C(=O)N(C)C(=O)N3c2ccc3[nH]c(=O)oc3c2)C(C)C)c1` [Example 31, (R)-5-Ethyl-2-fluoro-N-(3-methyl-1-(3-methyl-2,4-dioxo-1-(2-oxo-2,3-dihydrobenzo[d]oxazol-6-yl)-1,3,8-triazaspiro[4.5]decan-8-yl)-1-oxobutan-2-yl)benzamide], for which the IC50 was under 500 nM. Turning to `COc1ccc(N2C(=O)N(C)C(=O)C23CCN(C(=O)[C@H](NC(=O)c2cc(C4CC4)ccc2F)C(C)C)CC3)cc1` [Example 45, (R)-5-Cyclopropyl-2-fluoro-N-(1-(1-(4-methoxyphenyl)-3-methyl-2,4-dioxo-1,3,8-triazaspiro[4.5]decan-8-yl)-3-methyl-1-oxobutan-2-yl)benzamide], the IC50 was under 500 nM.
